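Each compound was tested at five concentrations against cells in 96-well plates for 48 hours. Abbreviation: GI50, concentration required for 50% inhibition of growth.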 The source made the active and inactive calls. No stated cut-off is given here; in the data, active = GI50 up to about 1.1 µM and inactive = higher.
Columns and labels:
Experiment in all cases: NCI-60 cell line screen, 48 h
SK-MEL-5 = tested on: SK-MEL-5
HT-29 = tested on: HT-29
MDA-MB-435 = tested on: MDA-MB-435
UACC-257 = tested on: UACC-257
KM12 = tested on: KM12
OVCAR-4 = tested on: OVCAR-4
OVCAR-5 = tested on: OVCAR-5
Malme-3M = tested on: Malme-3M
RPMI-8226 = tested on: RPMI-8226
CCRF-CEM = tested on: CCRF-CEM
CAKI-1 = tested on: CAKI-1
LOX IMVI = tested on: LOX IMVI
NCI/ADR-RES = tested on: NCI/ADR-RES
786-0 = tested on: 786-0
UACC-62 = tested on: UACC-62
HL-60 = tested on: HL-60
SW-620 = tested on: SW-620
MCF7 = tested on: MCF7
SNB-19 = tested on: SNB-19
SR = tested on: SR
SK-MEL-2 = tested on: SK-MEL-2
HCT-15 = tested on: HCT-15
RXF 393 = tested on: RXF 393
Hs-578T = tested on: Hs-578T
SN12C = tested on: SN12C
OVCAR-3 = tested on: OVCAR-3
HOP-62 = tested on: HOP-62
K562 = tested on: K562
MDA-N = tested on: MDA-N
EKVX = tested on: EKVX
HCC 2998 = tested on: HCC 2998
T47D = tested on: T47D
SF-295 = tested on: SF-295
A549 = tested on: A549
U-251 = tested on: U-251
M14 = tested on: M14
NCI-H226 = tested on: NCI-H226
PC-3 = tested on: PC-3
IGROV-1 = tested on: IGROV-1
SK-MEL-28 = tested on: SK-MEL-28
HCT-116 = tested on: HCT-116
MOLT-4 = tested on: MOLT-4
SF-268 = tested on: SF-268
NCI-H460 = tested on: NCI-H460
ACHN = tested on: ACHN
SNB-75 = tested on: SNB-75
MDA-MB-231 = tested on: MDA-MB-231
UO-31 = tested on: UO-31
DU-145 = tested on: DU-145
NCI-H23 = tested on: NCI-H23
COLO 205 = tested on: COLO 205
TK-10 = tested on: TK-10
BT-549 = tested on: BT-549
OVCAR-8 = tested on: OVCAR-8
SK-OV-3 = tested on: SK-OV-3
SF-539 = tested on: SF-539
HOP-92 = tested on: HOP-92

In the case of `Nc1nc(-c2ccccc2)cc(-c2ccc(F)cc2)c1-c1ccc(Cl)cc1`, the GI50 (SK-MEL-5) is reported as > 100 µM (inactive), the GI50 (HT-29) is reported as 13.2 µM (inactive) and the GI50 (MDA-MB-435) is reported as > 100 µM (inactive). The GI50 (UACC-257) was > 100 µM (inactive), the GI50 (KM12) was > 100 µM (inactive) and the GI50 (OVCAR-4) was 88.9 µM (inactive). For the same molecule, the GI50 (OVCAR-5) was > 100 µM (inactive), the GI50 (Malme-3M) was > 100 µM (inactive) and the GI50 (RPMI-8226) was 44.3 µM (inactive). The GI50 (CCRF-CEM) was 33.2 µM (inactive), the GI50 (CAKI-1) was > 100 µM (inactive) and the GI50 (LOX IMVI) was > 100 µM (inactive). The GI50 (NCI/ADR-RES) was > 100 µM (inactive), the GI50 (786-0) was 88.3 µM (inactive) and the GI50 (UACC-62) was > 100 µM (inactive). For the same molecule, the GI50 (HL-60) was 21.4 µM (inactive), the GI50 (SW-620) was > 100 µM (inactive) and the GI50 (MCF7) was 41.7 µM (inactive). For the same molecule, the GI50 (SNB-19) was > 100 µM (inactive), the GI50 (SR) was 22.2 µM (inactive) and the GI50 (SK-MEL-2) was > 100 µM (inactive). The GI50 (HCT-15) was > 100 µM, the GI50 (RXF 393) was > 100 µM (inactive) and the GI50 (Hs-578T) was 73.3 µM (inactive). For the same molecule, the GI50 (SN12C) was > 100 µM (inactive), the GI50 (OVCAR-3) was > 100 µM (inactive) and the GI50 (HOP-62) was 32.6 µM (inactive). The GI50 (K562) was 12.5 µM (inactive), the GI50 (MDA-N) was > 100 µM (inactive) and the GI50 (EKVX) was > 100 µM (inactive). For the same molecule, the GI50 (HCC 2998) was > 100 µM (inactive), the GI50 (T47D) was > 100 µM (inactive) and the GI50 (SF-295) was 41.6 µM (inactive). For the same molecule, the GI50 (A549) was > 100 µM (inactive), the GI50 (U-251) was > 100 µM (inactive) and the GI50 (M14) was > 100 µM (inactive). For the same molecule, the GI50 (NCI-H226) was > 100 µM (inactive), the GI50 (PC-3) was > 100 µM (inactive) and the GI50 (IGROV-1) was > 100 µM (inactive). The GI50 (SK-MEL-28) was > 100 µM (inactive), the GI50 (HCT-116) was > 100 µM (inactive) and the GI50 (MOLT-4) was 5.57 µM (inactive). The GI50 (SF-268) was > 100 µM (inactive), the GI50 (NCI-H460) was 31.3 µM (inactive) and the GI50 (ACHN) was > 100 µM (inactive). The GI50 (SNB-75) was > 100 µM (inactive), the GI50 (MDA-MB-231) was > 100 µM (inactive) and the GI50 (UO-31) was > 100 µM (inactive). For the same molecule, the GI50 (DU-145) was > 100 µM (inactive), the GI50 (NCI-H23) was > 100 µM (inactive) and the GI50 (COLO 205) was > 100 µM (inactive). For the same molecule, the GI50 (TK-10) was > 100 µM (inactive), the GI50 (BT-549) was > 100 µM (inactive) and the GI50 (OVCAR-8) was > 100 µM (inactive). For the same molecule, the GI50 (SK-OV-3) was > 100 µM (inactive).
In the case of `O=C(OCCN=c1c2ccccc2ccc2ccccc12)c1cc([N+](=O)[O-])cc([N+](=O)[O-])c1`, the GI50 (SK-MEL-5) is reported as > 100 µM (inactive), the GI50 (HT-29) is reported as > 100 µM (inactive) and the GI50 (MDA-MB-435) is reported as > 100 µM (inactive). The GI50 (UACC-257) was > 100 µM (inactive), the GI50 (KM12) was > 100 µM (inactive) and the GI50 (OVCAR-4) was 36.1 µM (inactive). For the same molecule, the GI50 (OVCAR-5) was > 100 µM (inactive), the GI50 (Malme-3M) was 21.5 µM (inactive) and the GI50 (RPMI-8226) was > 100 µM (inactive). For the same molecule, the GI50 (CCRF-CEM) was > 100 µM (inactive), the GI50 (CAKI-1) was > 100 µM (inactive) and the GI50 (LOX IMVI) was > 100 µM (inactive). The GI50 (NCI/ADR-RES) was > 100 µM (inactive), the GI50 (786-0) was > 100 µM (inactive) and the GI50 (UACC-62) was > 100 µM (inactive). For the same molecule, the GI50 (HL-60) was > 100 µM (inactive), the GI50 (SW-620) was > 100 µM (inactive) and the GI50 (MCF7) was > 100 µM (inactive). The GI50 (SNB-19) was > 100 µM (inactive), the GI50 (SR) was > 100 µM (inactive) and the GI50 (SK-MEL-2) was > 100 µM (inactive). For the same molecule, the GI50 (SF-539) was > 100 µM (inactive), the GI50 (HCT-15) was > 100 µM and the GI50 (RXF 393) was > 100 µM (inactive). For the same molecule, the GI50 (Hs-578T) was > 100 µM (inactive), the GI50 (SN12C) was > 100 µM (inactive) and the GI50 (OVCAR-3) was 40.6 µM (inactive). For the same molecule, the GI50 (HOP-62) was > 100 µM (inactive), the GI50 (K562) was > 100 µM (inactive) and the GI50 (MDA-N) was > 100 µM (inactive). The GI50 (EKVX) was > 100 µM (inactive), the GI50 (T47D) was > 100 µM (inactive) and the GI50 (SF-295) was > 100 µM (inactive). For the same molecule, the GI50 (A549) was > 100 µM (inactive), the GI50 (U-251) was > 100 µM (inactive) and the GI50 (M14) was > 100 µM (inactive). The GI50 (NCI-H226) was > 100 µM (inactive), the GI50 (PC-3) was > 100 µM (inactive) and the GI50 (IGROV-1) was > 100 µM (inactive). For the same molecule, the GI50 (SK-MEL-28) was > 100 µM (inactive), the GI50 (HCT-116) was > 100 µM (inactive) and the GI50 (HOP-92) was > 100 µM (inactive). The GI50 (MOLT-4) was > 100 µM (inactive), the GI50 (SF-268) was > 100 µM (inactive) and the GI50 (NCI-H460) was > 100 µM (inactive). The GI50 (ACHN) was > 100 µM (inactive), the GI50 (SNB-75) was > 100 µM (inactive) and the GI50 (MDA-MB-231) was > 100 µM (inactive). The GI50 (UO-31) was > 100 µM (inactive), the GI50 (DU-145) was > 100 µM (inactive) and the GI50 (NCI-H23) was > 100 µM (inactive). The GI50 (COLO 205) was > 100 µM (inactive), the GI50 (TK-10) was > 100 µM (inactive) and the GI50 (BT-549) was 25.8 µM (inactive). For the same molecule, the GI50 (OVCAR-8) was > 100 µM (inactive) and the GI50 (SK-OV-3) was > 100 µM (inactive).

Source: ChEMBL document CHEMBL1201862, “PubChem BioAssay data set” (2004)
